The target in one test is T1, hCCR5 (Homo sapiens, UniProt P51681).
T1 construct: expressed in transfected cells; host or cells: U87.CD4.CCR5
Kind of test: Ca2+ mobilization assay, U87.CD4.CCR5 cells, CCL5-induced. To be noted: antagonism of CCL5 response. The class given is cell-based. The method, then: The calcium (Ca^2+) mobilization assay was described in detail before. Briefly, U87.CD4.CXCR4 or U87.CD4.CCR5 cells (2 × 10^4 cells per well in DMEM/10% FBS/0.01 M HEPES) were seeded in gelatin-coated (Sigma-Aldrich; 0.1% gelatin in DPBS) black-walled 96-well plates and incubated overnight at 37 °C and 5% CO2. The next day, cells were loaded with the fluorescent Ca^2+ indicator Fluo-2 acetoxymethyl (AM) ester (4 μM final concentration; Abcam) and incubated at RT in the dark for 45 min. Then, cells were washed with assay buffer (see above) and subsequently incubated with different concentrations of compound for ~ 10 min prior to addition of 6.25 nM CXCL12 (in case of CXCR4) or 6.4 nM CCL5 (in case of CCR5). Fluctuations in intracellular Ca^2+ levels were measured in real time by the FLIPR Tetra® device (Molecular Devices) in all 96 wells simultaneously. The response (Relative Light Units, RLUs) over baseline was calculated (ScreenWorks 4.0® software, Molecular Devices) by dividing the RLUs by a base line value measured just before addition of CXCL12 or CCL5, respectively. Inhibition of the Ca^2+ response was determined taking into account negative (i.e., untreated cells without stimulation) and positive (i.e., untreated cells stimulated with either CXCL12 or CCL5) control samples.

The subject of test [1] is bleomycin-induced lung fibrosis in C57BL/6J mice. Kind of test: Bleomycin-induced lung fibrosis model. In kind it is in vivo, mouse. To be noted: 15 mg/kg/dose SC BID, day 21, vs bleomycin + 23% HPBCD. As to the method:
A preclinical mouse model for bleomycin-induced lung fibrosis was performed at the Department of Metabolic Health Research, The Netherlands Organisation for Applied Scientific Research (TNO) (Leiden, The Netherlands). Thirty-eight male C57BL/6J mice were matched on body weight prior to the study and divided into three groups (experimental study design, Supplementary Figure S1b). At day 0, 10–12-week-old mice received a single oropharyngeal administration of bleomycin (0.04U/mouse) (group 2 and 3). Control mice (group 1) received phosphate buffered saline (PBS) instead. At day 0, bleomycin-treated mice received either compound 18a (15 mg/kg/dose, subcutaneous, twice daily, group 3), or its corresponding vehicle control (23% HPBCD, subcutaneous, twice daily, group 2)]. PBS-treated mice received 23% HPBCD throughout the study (subcutaneous, twice daily, group 1). At day 21, mice were sacrificed under isoflurane anesthesia and plasma samples and lung lobes were collected. As a primary endpoint the histology lung fibrosis score (modified Ashcroft score) was used based on a Masson’s Trichrome staining on cross-sections of the left lung lobe. As a secondary endpoint collagen content (hydroxyproline) was analyzed on the medial and accessory lobes by using a chromogenic assay according to the manufacturer’s instructions (QuickZyme Biosciences, Leiden, the Netherlands).

T1 sequence (P51681 whole entry): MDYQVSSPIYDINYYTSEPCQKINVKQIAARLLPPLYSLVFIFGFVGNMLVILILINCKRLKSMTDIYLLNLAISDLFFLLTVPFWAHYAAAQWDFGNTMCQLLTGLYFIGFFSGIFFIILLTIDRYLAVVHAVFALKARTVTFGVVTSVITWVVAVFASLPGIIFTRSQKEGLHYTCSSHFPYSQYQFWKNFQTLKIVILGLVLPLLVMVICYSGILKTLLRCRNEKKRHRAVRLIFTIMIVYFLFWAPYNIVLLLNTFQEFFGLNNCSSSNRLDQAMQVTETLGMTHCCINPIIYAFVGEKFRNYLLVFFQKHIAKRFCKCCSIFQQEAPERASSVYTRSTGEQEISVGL

The compound `CCc1ccn2ccnc2c1N1CCCN(C(CC(N)=O)C2CCN(C(=O)C3CC4CCC3O4)CC2)CC1` (centres unmarked) [compound 18a] yielded an IC50 against hCCR5 greater than 40 µM. Further, in test [1], the “development of lung fibrosis (modified Ashcroft score, hydroxyproline)” value is recorded as “did not counteract the development of fibrosis”.

By IC50 is commonly meant the concentration that gives 50% inhibition.

The values above are taken from publication PMC9106635, “Stimulation of the atypical chemokine receptor 3 (ACKR3) by a small-molecule agonist attenuates fibrosis in a preclinical liver but not lung injury model” (Cellular and Molecular Life Sciences: CMLS, 2022).
